Results taken from US9315544B2, “Method of treating eosinophilia by administering an immunomodulating peptide” (National Tsing Hua University, priority 2012, dated 2016).

Experiments:
[1] = system: IL-17A/F; test: Cytokine ELISA of lung protein extract (IL-17A/F); assay type: in vivo, BALB/c mouse; settings: eIN+mIT, mIT+eIN and eIN+mIT+eIN groups
From the text: FIG. 4 illustrates experimental design. All groups except control group were immunized with mite crude extract allergen on days 1 and 8, then mite crude extract allergen intratracheally on day 15 in all mite treated group, BALB/c mouse were divided into six groups (1) control group (PBS), (2) mites delivered intratracheally (mIT, mite on day 15) alone, (3) CMP intranasal (eIN, CMP on days 1 to 22) alone, (4) preventive-treatment group (eIN+mIT, CMP on days 1 to 14, mite on day 15) (5) therapy-treatment group (mIT+eIN, mite on day 15, CMP on days 15 to 22), and (6) preventive- and therapeutic-treatment group (eIN+mIT+eIN, CMP on days 1 to 22, mite on day 15).
FIG. 9 illustrates inhibitory effect of CMP on lung protein extract. Lung protein extracts from different groups of mouse were assayed for the indicated cytokines. Data represent one of three independent experiments. Levels of CCL-11, IL-5, IL-13 and IL-17A/F levels in lung protein extracts from mouse from treatment groups were measured by Enzyme-linked immunosorbent assay (ELISA). Each result was expressed as the mean±S.D., n=4. **, P<0.01, ***, P<0.001. […]
Levels of cytokines from lung protein extract were measured by ELISA. […] The microplates were read at 450 nm with an ELISA reader (Thermo Labsystems, Waltham, Mass., USA). […]

[2] = system: mouse colon cancer cells; test: Transwell migration assay, mouse colon cancer cells; assay type: cell-based; settings: 5 μM CMP pretreatment 30 min, 18 hours
Procedure: FIG. 10 illustrates Tumor migration inhibition by CMP. A549, H460 and mouse colon cancer cells were incubated with CMP at 37° C. for 30 min before adding to the top chamber of transwell membranes in 24-well dishes at a density of 2×10^4 cells/well. Data represented the mean±S.E. of triplicate samples from a representative experiment. The experiment was repeated at least three times with similar results
Cancer cell inhibition by CMP was performed in a 24-well Transwell chamber consisting of a cell culture insert (6.4 mm diameter, 8-1 μm pore polyethylene tetraphtalate membrane, [Becton Dickinson]) set in each well of a 24-well companion plate (Becton Dickinson). Briefly, 3×10^4 cancer cells were suspended and pretreated with 5 and 12.5 μM CMP for 30 min in a total volume of 200 μL. Cell suspensions were inoculated into the upper chamber of an insert, 5% fetal bovine serum (FBS) in medium as a chemoattractant was added to the plate well in the bottom chamber, and incubated for 18 hours in a humidified incubator at 37° C. with 5% CO2. The non-migratory cells on the upper membrane surface were removed with a cotton swab, and the migratory cells attached to the lower membrane surface were fixed with 4% paraformaldehyde and stained with 0.2% crystal violet. The number of migrated cells was counted in four randomly selected high power fields under microscope. […]

NYRWRCKNQN (CMP)
IL-17A/F levels in lung protein extract compared with mIT group [1]: much lower | decrease of migration activity [2]: 60%
